Assay results: PMC6060383, “Synthesis and pharmacological evaluation of novel isoquinoline N-sulphonylhydrazones designed as ROCK inhibitors” (Journal of Enzyme Inhibition and Medicinal Chemistry, 2018)
“Also recorded” adds a separate entry of the source.

How the values were obtained:
MDA-MB 231 cells [1] = assay: Plasma membrane integrity assay (LDH); type: cell-based, human; conditions: 0.1 to 30 µM, 24 and 48 h
Protocol: (§1) The human mammary gland/breast epithelial cell line MDA-MB 231 was obtained from the American Type Culture Collection (ATCC® HTB-26™) and this use was approved by the Ethics Committee for Animal Care and Use in Scientific Research from the Federal University of Rio de Janeiro. Cells were routinely grown in RPMI medium containing 10% foetal bovine serum (FBS), 1% L-glutamine and 1% penicillin-streptomycin, in a humidified 5% CO2 atmosphere at 37 °C. Cells were cultured up to 70–100% confluence and then some cultures were treated with the compounds at different concentrations for 24 or 48 h. All cell culture reagents were purchased from Invitrogen (São Paulo, Brazil).
To measure plasma membrane integrity, we assayed serum lactate dehydrogenase (LDH) levels and calculated percentages of LDH release to the medium. LDH activity was measured spectrophotometrically using a commercial kit (Doles, Goiás, Brazil). […] Then, 10 μl of NAD were added and absorbance intensities were measured in a microplate reader (FlexStation® 3 Reader, Molecular Devices) at 490 nm. The percentage of LDH release was calculated by ([LDH] sample ×100)/total [LDH]. […]
We also analysed the plasma membrane integrity by measuring the serum lactate dehydrogenase (LDH) levels in the culture medium to confirm the cell viability data. […]

[2] = molecular target: T1, ROCK2 human recombinant enzyme (Homo sapiens, UniProt O75116); assay: ROCK2 inhibition assay (Eurofins-Cerep, phosphorylation of Ulight-RRRSLLE substrate); type: biochemical
T1 construct: purchased EUROFINS-CEREP France (contract assay, study numbers 100033685 and 100040481); host or cells: Sf21 insect cells
Protocol: (§2) The analysis was performed using software developed at Cerep (Hill software) and GraphPad Prism® 5.0 (GraphPad Software, Inc., San Diego, CA) and validated through comparison with results generated using the SigmaPlot 4.0 software.
(§3) Prior to this assay, we evaluated the solubility of these compounds in water (buffer pH 7.4) to ensure that the inhibition percentages were not influenced by the precipitation of the compounds under test conditions.

MDA-MB 231 cells [3] = assay: Cell-based scratch assay (cell migration); parameters: species or system human; conditions: 10 or 30 μM, 24 h
Protocol: as §1
Cells were cultured in 24-well culture plates for 24 h up to 90–100% confluence. Scratched wound lines were created with the help of a 200 μl micropipette tip. […] Images were acquired with an Olympus DP71 digital camera (Olympus, Japan) and the wound area was quantified using Fiji software (based on ImageJ, http://imageJ.nih.gov/ij/) from three different experiments.
The functions of Rho-kinase include the regulation of cellular contraction, motility, morphology, polarity, division, and gene expression. Therefore, we performed a cell-based scratch assay followed by the quantification of the wounded area to analyse whether compounds 5b (LASSBio-2020) and 11 (LASSBio-2065) altered cell migration. […]

IKK-β = molecular target: T2, IKK-β (Homo sapiens, UniProt O14920); assay: IKK-β inhibition screening; type: biochemical; conditions: screening concentration of 10 μM; data not shown
T2 sequence (O14920 1-756): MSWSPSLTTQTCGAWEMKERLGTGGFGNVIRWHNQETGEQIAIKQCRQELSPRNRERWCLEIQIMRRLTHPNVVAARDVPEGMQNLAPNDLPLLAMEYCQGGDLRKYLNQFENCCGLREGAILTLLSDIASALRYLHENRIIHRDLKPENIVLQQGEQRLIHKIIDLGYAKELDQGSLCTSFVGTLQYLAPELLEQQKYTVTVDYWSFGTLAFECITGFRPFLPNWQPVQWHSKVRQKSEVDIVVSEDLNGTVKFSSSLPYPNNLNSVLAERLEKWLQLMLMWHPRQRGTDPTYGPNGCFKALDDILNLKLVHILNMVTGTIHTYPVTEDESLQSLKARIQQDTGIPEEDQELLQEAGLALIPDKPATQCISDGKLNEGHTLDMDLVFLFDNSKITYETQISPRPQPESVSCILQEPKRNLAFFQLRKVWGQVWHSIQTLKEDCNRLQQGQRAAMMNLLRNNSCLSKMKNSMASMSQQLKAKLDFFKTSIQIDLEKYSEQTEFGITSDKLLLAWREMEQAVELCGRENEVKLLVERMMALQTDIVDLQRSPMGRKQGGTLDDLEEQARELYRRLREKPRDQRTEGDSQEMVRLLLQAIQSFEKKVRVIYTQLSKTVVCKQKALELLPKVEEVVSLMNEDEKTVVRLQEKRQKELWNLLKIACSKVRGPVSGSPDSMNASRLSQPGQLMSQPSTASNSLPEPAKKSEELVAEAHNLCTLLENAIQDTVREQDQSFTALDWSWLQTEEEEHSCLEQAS
Source text: Furthermore, considering that 2 (LASSBio-1524) was used in the structural design of this new family of ROCK inhibitors we also investigated the ability of 5b (LASSBio-2020) and 11 (LASSBio-2065) to inhibit IKK-β.

[4] = molecular target: T3, ROCK1 human recombinant enzyme (Homo sapiens, UniProt Q13464); assay: ROCK1 inhibition assay (Eurofins-Cerep, phosphorylation of Ulight-RRRSLLE substrate); type: biochemical
T3 construct: purchased EUROFINS-CEREP France (contract assay, study numbers 100033685 and 100040481); host or cells: Sf9 insect cells
Protocol: as §2, §3

[5] = screening concentration 3 μM, average of two experiments

T3 sequence (Q13464 whole entry): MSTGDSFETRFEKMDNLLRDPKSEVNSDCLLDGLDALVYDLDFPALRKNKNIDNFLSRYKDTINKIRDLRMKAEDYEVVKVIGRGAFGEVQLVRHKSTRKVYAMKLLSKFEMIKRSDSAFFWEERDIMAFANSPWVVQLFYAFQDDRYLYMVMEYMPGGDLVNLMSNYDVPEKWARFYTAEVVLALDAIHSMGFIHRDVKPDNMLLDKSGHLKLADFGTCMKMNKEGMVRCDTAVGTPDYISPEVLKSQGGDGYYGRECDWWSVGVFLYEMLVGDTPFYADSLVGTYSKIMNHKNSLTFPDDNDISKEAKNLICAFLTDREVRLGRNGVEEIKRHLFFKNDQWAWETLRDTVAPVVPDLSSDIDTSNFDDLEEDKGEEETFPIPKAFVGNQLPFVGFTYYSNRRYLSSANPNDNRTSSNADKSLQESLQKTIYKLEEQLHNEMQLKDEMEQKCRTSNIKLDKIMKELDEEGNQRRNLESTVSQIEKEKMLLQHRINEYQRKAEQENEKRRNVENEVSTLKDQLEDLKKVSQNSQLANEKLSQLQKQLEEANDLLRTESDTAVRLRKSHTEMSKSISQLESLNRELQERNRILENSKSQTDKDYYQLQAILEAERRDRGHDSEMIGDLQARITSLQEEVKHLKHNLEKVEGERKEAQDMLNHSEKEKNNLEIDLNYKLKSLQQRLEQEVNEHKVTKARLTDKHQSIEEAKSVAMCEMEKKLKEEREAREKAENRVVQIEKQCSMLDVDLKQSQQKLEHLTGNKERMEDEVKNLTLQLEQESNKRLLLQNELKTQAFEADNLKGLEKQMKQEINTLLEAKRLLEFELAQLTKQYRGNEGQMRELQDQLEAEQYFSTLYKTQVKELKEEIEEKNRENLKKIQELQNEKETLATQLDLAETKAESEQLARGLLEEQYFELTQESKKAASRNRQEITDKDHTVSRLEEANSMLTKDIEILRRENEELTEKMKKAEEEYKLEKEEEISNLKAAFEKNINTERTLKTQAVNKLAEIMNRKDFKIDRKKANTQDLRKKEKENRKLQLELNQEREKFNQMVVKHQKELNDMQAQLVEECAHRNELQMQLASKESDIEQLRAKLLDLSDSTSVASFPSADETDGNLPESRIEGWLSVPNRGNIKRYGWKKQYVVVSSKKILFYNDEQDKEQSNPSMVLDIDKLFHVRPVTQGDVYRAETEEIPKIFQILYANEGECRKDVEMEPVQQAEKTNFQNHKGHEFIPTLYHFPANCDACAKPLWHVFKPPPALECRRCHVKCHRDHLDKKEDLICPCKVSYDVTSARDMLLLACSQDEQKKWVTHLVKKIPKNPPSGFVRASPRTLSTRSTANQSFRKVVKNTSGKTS
T1 sequence (O75116 1-543 limits assumed): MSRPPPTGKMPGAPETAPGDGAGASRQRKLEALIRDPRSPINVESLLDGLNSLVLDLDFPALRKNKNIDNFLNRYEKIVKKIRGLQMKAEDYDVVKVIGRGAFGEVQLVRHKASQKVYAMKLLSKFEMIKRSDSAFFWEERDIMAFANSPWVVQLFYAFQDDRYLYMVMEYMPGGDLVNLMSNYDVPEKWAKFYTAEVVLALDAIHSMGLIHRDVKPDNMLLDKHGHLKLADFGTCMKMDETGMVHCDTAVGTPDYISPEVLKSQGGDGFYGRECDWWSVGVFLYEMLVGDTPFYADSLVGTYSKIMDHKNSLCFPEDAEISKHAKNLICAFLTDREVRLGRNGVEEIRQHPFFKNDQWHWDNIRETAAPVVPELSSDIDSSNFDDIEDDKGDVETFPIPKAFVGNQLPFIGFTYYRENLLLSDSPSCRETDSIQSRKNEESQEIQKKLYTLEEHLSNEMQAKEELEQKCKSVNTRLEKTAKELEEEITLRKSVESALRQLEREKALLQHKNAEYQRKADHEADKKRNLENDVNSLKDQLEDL

melting point: 172 °C
IC50 ([2]; human recombinant ROCK2, five-point assay, 1 to 50 µM, mean of two experiments): 7.1 µM
inhibition at 3 µM [2, 5]: 24.2%
IC50 ([4]; human recombinant ROCK1, five-point assay, 1 to 50 µM, mean of two experiments): 13 µM
inhibition at 3 µM [4, 5]: 29%
Compound: O=S(=O)(N/N=C/c1ccccc1)c1cccc2cnccc12 [Compound 5b, (E)-N′-benzylideneisoquinoline-5-sulphonohydrazide]
LDH levels in culture medium / cytotoxicity in LDH assay (result in words) (MDA-MB 231 cells [1]): not altered
effect on cell migration (result in words) (MDA-MB 231 cells [3]): inhibited MDA-MB 231 cell migration; also recorded: effective at inhibiting cell migration
IKK-β inhibition (result in words) (IKK-β): none of these N-sulphonylhydrazone derivatives was able to inhibit IKK-β
